Source: ChEMBL document CHEMBL5724696, “Autophagy assay results for EUbOPEN Chemogenomics Library” (2024)
Several values for one entry are separate records, joined by “and”; a condition that tells them apart may be missing. Equal values may be shown once.

What was measured:
Type in all cases: functional, Homo sapiens
U2OS [1] = assay: (§1) Here: values are normalized to the negative (DMSO; defined as 0% autophagy induction) and positive (250nM Torin1; mTOR inhibitor; defined as maximal inducer of autophagy = 100%) control compounds and represented as % of autophagy induction. […] The impact of autophagy induction on cells is complex and depends on the affected target. As such, the magnitude of a phenotype may not be equally mirrored in the %-value of autophagy induction and vice versa. The dynamics of the induction may indicate the mode of activation: e.g. activation via phosphorylation or a signaling cascade may occur fast, while activation via transcription factors may take considerably longer. […] Of note, treatment concentrations may be sub-optimal for specific compounds, leading to false negative annotations.; details: Culturing Media DMEM, 1 % Penicillin/Streptomycin, 10% Fetal bovin serum Add-On: No, Screening Media Control DMEM, Screening Media Samples DMEM
TERT-RPE1 = assay: as §1; details: Culturing Media DMEM/F12 (1:1), 1 % Penicillin/Streptomycin, 10% Fetal bovin serum Add-On: No, Screening Media Control DMEM/F12 (1:1), Screening Media Samples DMEM/F12 (1:1)
U2OS [2] = assay: as §1; details: Culturing Media DMEM, 1 % Penicillin/Streptomycin, 10% Fetal bovin serum Add-On: No, Screening Media Control DMEM, Screening Media Samples DMEM; remark: listed apart in the source
[3] = Compound Concentration 0.5 uM, Timepoint 12 hours
[4] = Compound Concentration 0.5 uM, Timepoint 24 hours
[5] = Compound Concentration 0.5 uM, Timepoint 36 hours
[6] = Compound Concentration 0.5 uM, Timepoint 60 hours
[7] = Compound Concentration 2 uM, Timepoint 12 hours
[8] = Compound Concentration 2 uM, Timepoint 24 hours
[9] = Compound Concentration 2 uM, Timepoint 36 hours
[10] = Compound Concentration 2 uM, Timepoint 60 hours
[11] = Compound Concentration 10 uM, Timepoint 12 hours
[12] = Compound Concentration 10 uM, Timepoint 24 hours
[13] = Compound Concentration 10 uM, Timepoint 36 hours
[14] = Compound Concentration 10 uM, Timepoint 60 hours
[15] = Compound Concentration 0.5 uM, Timepoint 36 hours, 36 h, 0.5 µM

SMILES | autophagy induction (U2OS [1]; [3]) [%] | autophagy induction (U2OS [1]; [4]) [%] | autophagy induction (U2OS [1]; [5]) [%] | autophagy induction (U2OS [1]; [6]) [%] | autophagy induction (U2OS [1]; [7]) [%] | autophagy induction (U2OS [1]; [8]) [%] | autophagy induction (U2OS [1]; [9]) [%] | autophagy induction (U2OS [1]; [10]) [%] | autophagy induction (U2OS [1]; [11]) [%] | autophagy induction (U2OS [1]; [12]) [%] | autophagy induction (U2OS [1]; [13]) [%] | autophagy induction (U2OS [1]; [14]) [%] | autophagy induction (U2OS [2]; [3]) [%] | autophagy induction (U2OS [2]; [4]) [%] | autophagy induction (U2OS [2]; [5]) [%] | autophagy induction (U2OS [2]; [6]) [%] | autophagy induction (U2OS [2]; [7]) [%] | autophagy induction (U2OS [2]; [8]) [%] | autophagy induction (U2OS [2]; [9]) [%] | autophagy induction (U2OS [2]; [10]) [%] | other results
COc1ccc(C2(O)OC(=O)C(c3ccc4c(c3)OCO4)=C2Cc2cc(OC)c(OC)c(OC)c2)cc1 (centres undefined) [PD-156707] | 2.427 | 7.779 | 2.534 | -0.8382 | -5.016 | 3.24 | -2.65 | -6.1634 | -12.4956 | -10.1664 | -12.3712 | -18.4825 | -0.3009 | 0.4369 | -0.07956 | -0.9865 | -2.496 | -1.926 | -0.6682 | -1.242 | autophagy induction (TERT-RPE1; [3]): -7.977%; autophagy induction (TERT-RPE1; [4]): -6.312%; autophagy induction (TERT-RPE1; [5]): -1.3569%; autophagy induction (TERT-RPE1; [6]): 6.352%; autophagy induction (TERT-RPE1; [7]): -3.2518%; autophagy induction (TERT-RPE1; [8]): -7.638%; autophagy induction (TERT-RPE1; [9]): -7.617%; autophagy induction (TERT-RPE1; [10]): -7.701%; autophagy induction (TERT-RPE1; [11]): -8.81%; autophagy induction (TERT-RPE1; [12]): -9.172%; autophagy induction (TERT-RPE1; [13]): -8.276%; autophagy induction (TERT-RPE1; [14]): -11.0822%; autophagy induction (U2OS [2]; [11]): -0.3825%; autophagy induction (U2OS [2]; [12]): -1.441%; autophagy induction (U2OS [2]; [13]): -0.8744%; autophagy induction (U2OS [2]; [14]): -0.2319%
CCC[C@H](Oc1cc(C)c(-n2cc(C(F)(F)F)cn2)c(C)c1)c1ccc(C(=O)NCCC(=O)O)cc1 [PF-06291874] | -11.4233 | -19.405 | -11.4713 | -20.1699 | -1.65 | -7.926 | -7.132 | -11.198 | 3.31 | 3.258 | -0.5015 | -15.9451 | -5.893 | -2.993 | -60.6887 | -2.982 | -4.845 | -1.051 | -59.3505 | -1.615 | autophagy induction (TERT-RPE1; [15]): -0.178% and 20.1142%; autophagy induction (U2OS [2]; [11]): -7.606%; autophagy induction (U2OS [2]; [12]): -1.597%; autophagy induction (U2OS [2]; [13]): -60.4241%; autophagy induction (U2OS [2]; [14]): -2.455%
Cl.Clc1ccc(CCCOCCCN2CCCCC2)cc1 [PITOLISANT HYDROCHLORIDE] | 13.8608 | 9.201 | 8.758 | 0.1501 | -8.536 | -1.42 | -3.922 | -5.605 | 1.329 | 3.348 | 1.993 | 3.566 | 15.5533 | 6.616 | -57.7817 | -0.2681 | -2.233 | -2.143 | -60.8013 | -1.476 | autophagy induction (TERT-RPE1; Compound Concentration 0.5 uM, Timepoint 12 hours, 12 h, 0.5 µM): -3.0454% and 2.896%; autophagy induction (TERT-RPE1; Compound Concentration 0.5 uM, Timepoint 24 hours, 24 h, 0.5 µM): -1.513% and 3.003%; autophagy induction (TERT-RPE1; [15]): -3.944% and 2.632%; autophagy induction (TERT-RPE1; Compound Concentration 0.5 uM, Timepoint 60 hours, 60 h, 0.5 µM): -4.171% and 0.01183%; autophagy induction (TERT-RPE1; Compound Concentration 2 uM, Timepoint 12 hours, 12 h, 2 µM): 0.8347% and 2.672%; autophagy induction (TERT-RPE1; Compound Concentration 2 uM, Timepoint 24 hours, 24 h, 2 µM): 0.6662% and 3.448%; autophagy induction (TERT-RPE1; Compound Concentration 2 uM, Timepoint 36 hours, 36 h, 2 µM): -1.283% and 2.753%; autophagy induction (TERT-RPE1; Compound Concentration 2 uM, Timepoint 60 hours, 60 h, 2 µM): -3.185% and 1.301%; autophagy induction (TERT-RPE1; Compound Concentration 10 uM, Timepoint 36 hours, 36 h, 10 µM): -0.5799% and 21.0375%; autophagy induction (U2OS [2]; [11]): 10.0351%; autophagy induction (U2OS [2]; [12]): 1.34%; autophagy induction (U2OS [2]; [13]): -57.6898%; autophagy induction (U2OS [2]; [14]): -1.026%
